Tests used:
Type in all cases: in vivo
rice (Oryra sativa) = assay: Test B flooded paddy test; details: Flood, 250 g ai/ha; 0 to 100 scale where 0 is no effect and 100 is complete control; 13 to 15 d
Description: (§1) Plant species in the flooded paddy test selected from rice (Oryra sativa), sedge, umbrella (small-flower umbrella sedge, Cyperus difformis), ducksalad (Heteranthera limosa), and barnyardgrass (Echinochloa crus-galli) were grown to the 2-leaf stage for testing. At time of treatment, test pots were flooded to 3 cm above the soil surface, treated by application of test compounds directly to the paddy water, and then maintained at that water depth for the duration of the test. Treated plants and controls were maintained in a greenhouse for 13 to 15 d, after which time all species were compared to controls and visually evaluated. Plant response ratings, summarized in Table B, are based on a scale of 0 to 100 where 0 is no effect and 100 is complete control. A dash (-) response means no test result.

[1] = test system: ducksalad (Heteranthera limosa); assay: Test B flooded paddy test; details: Flood, 250 g ai/ha; 0 to 100 scale where 0 is no effect and 100 is complete control; 13 to 15 d
Description: as §1

[2] = test system: barnyardgrass (Echinochloa crus-galli); assay: Test B flooded paddy test; details: Flood, 250 g ai/ha; 0 to 100 scale where 0 is no effect and 100 is complete control; 13 to 15 d
Description: as §1

[3] = test system: sedge, umbrella (small-flower umbrella sedge, Cyperus difformis); assay: Test B flooded paddy test; details: Flood, 250 g ai/ha; 0 to 100 scale where 0 is no effect and 100 is complete control; 13 to 15 d
Description: as §1

[4] = test system: Galium (catchweed bedstraw, Galium aparine); assay: Test A postemergence
Text: (§2) Seeds of plant species selected from barnyardgrass (Echinochloa crus-galli), Kochia (Kochia scoparia), ragweed (common ragweed, Ambrosia elatior), ryegrass, Italian (Italian ryegrass, Lolium multiflorum), crabgrass, large (Digitaria sanguinalis), giant foxtail (Setaria faberii), green foxtail (Setaria viridis), morningglory (Ipomoea spp.), pigweed (Amaranthus retroflexus), velvetleaf (Abutilon theophrasti), wheat (Triticum aestivum), and corn (Zea mays) were planted into a blend of loam soil and sand and treated preemergence with a directed soil spray using test chemicals formulated in anon-phytotoxic solvent mixture which included a surfactant.
(§3) At the same time, plants selected from these crop and weed species and also blackgrass (Alopecurus myosuroides), and Galium (catchweed bedstraw, Galium aparine) were planted in pots containing the same blend of loam soil and sand and treated with postemergence applications of test chemicals formulated in the same manner. Plants ranged in height from 2 to 10 cm and were in the one- to two-leaf stage for the postemergence treatment. Treated plants and untreated controls were maintained in a greenhouse for approximately 10 d, after which time all treated plants were compared to untreated controls and visually evaluated for injury. Plant response ratings, summarized in Table A, are based on a 0 to 100 scale where 0 is no effect and 100 is complete control. A dash (-) response means no test result.

[5] = test system: pigweed (Amaranthus retroflexus); assay: Test A postemergence
Text: as §2, §3

[6] = test system: wheat (Triticum aestivum); assay: Test A postemergence
Text: as §2, §3

[7] = test system: barnyardgrass (Echinochloa crus-galli); assay: Test A postemergence
Text: as §2, §3

[8] = test system: ragweed (common ragweed, Ambrosia elatior); assay: Test A postemergence
Text: as §2, §3

corn (Zea mays) = assay: Test A postemergence
Text: as §2, §3

[9] = test system: ryegrass, Italian (Italian ryegrass, Lolium multiflorum); assay: Test A postemergence
Text: as §2, §3

[10] = test system: blackgrass (Alopecurus myosuroides); assay: Test A postemergence
Text: as §2, §3

Kochia (Kochia scoparia) [11] = assay: Test A postemergence
Text: as §2, §3

[12] = test system: giant foxtail (Setaria faberii); assay: Test A postemergence
Text: as §2, §3

[13] = test system: pigweed (Amaranthus retroflexus); assay: Test A preemergence; details: for Plant response rating, Pigweed: 125 g ai/ha, preemergence, 0 to 100 scale (0 no effect, 100 complete control); for Pigweed plant response rating (0 to 100 scale): Preemergence, 500 g ai/ha, 0 is no effect, 100 is complete control
Text: as §2, §3

[14] = test system: barnyardgrass (Echinochloa crus-galli); assay: Test A preemergence; details: for Plant response rating, Barnyardgrass: 125 g ai/ha, preemergence, 0 to 100 scale (0 no effect, 100 complete control); for Barnyardgrass plant response rating (0 to 100 scale): Preemergence, 500 g ai/ha, 0 is no effect, 100 is complete control
Text: as §2, §3

[15] = test system: ragweed (common ragweed, Ambrosia elatior); assay: Test A preemergence; details: for Plant response rating, Ragweed: 125 g ai/ha, preemergence, 0 to 100 scale (0 no effect, 100 complete control); for Ragweed plant response rating (0 to 100 scale): Preemergence, 500 g ai/ha, 0 is no effect, 100 is complete control
Text: as §2, §3

[16] = test system: ryegrass, Italian (Italian ryegrass, Lolium multiflorum); assay: Test A preemergence; details: for Plant response rating, Ryegrass, Italian: 125 g ai/ha, preemergence, 0 to 100 scale (0 no effect, 100 complete control); for Ryegrass, Italian plant response rating (0 to 100 scale): Preemergence, 500 g ai/ha, 0 is no effect, 100 is complete control
Text: as §2, §3

Kochia (Kochia scoparia) [17] = assay: Test A preemergence; details: for Plant response rating, Kochia: 125 g ai/ha, preemergence, 0 to 100 scale (0 no effect, 100 complete control); for Kochia plant response rating (0 to 100 scale): Preemergence, 500 g ai/ha, 0 is no effect, 100 is complete control
Text: as §2, §3

[18] = test system: giant foxtail (Setaria faberii); assay: Test A preemergence; details: for Plant response rating, Foxtail, Giant: 125 g ai/ha, preemergence, 0 to 100 scale (0 no effect, 100 complete control); for Foxtail, Giant plant response rating (0 to 100 scale): Preemergence, 500 g ai/ha, 0 is no effect, 100 is complete control
Text: as §2, §3

[19] = 500 g ai/ha, postemergence, 0 to 100 scale, 0 no effect, 100 complete control
[20] = Postemergence, 125 g ai/ha, visual injury, 0 to 100 scale (0 no effect, 100 complete control), approx. 10 d
[21] = 125 g ai/ha, postemergence, visual injury rating on 0 to 100 scale (0 no effect, 100 complete control), approx. 10 d

CCCOc1cccc(C2CNC(=O)C2C(=O)Nc2cccc(F)c2F)c1 (racemic) [Compound 380]
Plant response rating, Rice (rice (Oryra sativa)): 0 | Plant response rating, Ducksalad [1]: 0 | Plant response rating, Barnyardgrass [2]: 0 | Plant response rating, Sedge, Umbrella [3]: 0 | Plant response rating, Galium [4, 19]: 50 | Plant response rating, Galium [4, 20]: 20 | Plant response rating, Pigweed [5, 19]: 0 | Plant response rating, Pigweed [5, 20]: 0 | Plant response rating, Wheat [6, 19]: 20 | Plant response rating, Wheat [6, 20]: 0 | Plant response rating, Barnyardgrass [7, 19]: 80 | Plant response rating, Barnyardgrass [7, 20]: 50 | Plant response rating, Ragweed [8, 19]: 0 | Plant response rating, Ragweed [8, 20]: 0 | Plant response rating, Corn (corn (Zea mays); [19]): 0 | Plant response rating, Corn (corn (Zea mays); [20]): 0 | Plant response rating, Ryegrass, Italian [9, 19]: 0 | Plant response rating, Ryegrass, Italian [9, 20]: 0 | Plant response rating, Blackgrass [10, 19]: 40 | Plant response rating, Blackgrass [10, 20]: 30 | Plant response rating, Kochia (Kochia (Kochia scoparia) [11]; [19]): 0 | Plant response rating, Kochia (Kochia (Kochia scoparia) [11]; [20]): 0 | Plant response rating, Foxtail, Giant [12, 19]: 70 | Plant response rating, Foxtail, Giant [12, 20]: 30 | Plant response rating, Pigweed [13]: 0 | Pigweed plant response rating (0 to 100 scale) [13]: 30 | Plant response rating, Barnyardgrass [14]: 70 | Barnyardgrass plant response rating (0 to 100 scale) [14]: 90 | Plant response rating, Ragweed [15]: 0 | Ragweed plant response rating (0 to 100 scale) [15]: 0 | Plant response rating, Ryegrass, Italian [16]: 0 | Ryegrass, Italian plant response rating (0 to 100 scale) [16]: 20 | Plant response rating, Kochia (Kochia (Kochia scoparia) [17]): 0 | Kochia plant response rating (0 to 100 scale) (Kochia (Kochia scoparia) [17]): 40 | Plant response rating, Foxtail, Giant [18]: 50 | Foxtail, Giant plant response rating (0 to 100 scale) [18]: 90

O=C1NCC(c2cccc(OC(F)(F)C(F)F)c2)C1C(=O)Nc1ccccc1C(F)F (stereo not drawn) [Compound 391]
Plant response rating, Rice (rice (Oryra sativa)): 0 | Plant response rating, Ducksalad [1]: 100 | Plant response rating, Barnyardgrass [2]: 40 | Plant response rating, Sedge, Umbrella [3]: 0 | Galium plant response rating [4, 21]: 60 | Plant response rating, Galium [4, 19]: 60 | Pigweed plant response rating [5, 21]: 30 | Plant response rating, Pigweed [5, 19]: 50 | Wheat plant response rating [6, 21]: 0 | Plant response rating, Wheat [6, 19]: 50 | Plant response rating, Barnyardgrass [7, 19]: 80 | Plant response rating, Barnyardgrass [7, 20]: 60 | Ragweed plant response rating [8, 21]: 20 | Plant response rating, Ragweed [8, 19]: 30 | Corn plant response rating (corn (Zea mays); [21]): 40 | Plant response rating, Corn (corn (Zea mays); [19]): 70 | Ryegrass, Italian plant response rating [9, 21]: 30 | Plant response rating, Ryegrass, Italian [9, 19]: 40 | Plant response rating, Blackgrass [10, 19]: 70 | Plant response rating, Blackgrass [10, 20]: 50 | Kochia plant response rating (Kochia (Kochia scoparia) [11]; [21]): 0 | Plant response rating, Kochia (Kochia (Kochia scoparia) [11]; [19]): 60 | Foxtail, Giant plant response rating [12, 21]: 90 | Plant response rating, Foxtail, Giant [12, 19]: 90 | Plant response rating, Pigweed [13]: 70 | Pigweed plant response rating (0 to 100 scale) [13]: 70 | Plant response rating, Barnyardgrass [14]: 80 | Barnyardgrass plant response rating (0 to 100 scale) [14]: 90 | Plant response rating, Ragweed [15]: 80 | Ragweed plant response rating (0 to 100 scale) [15]: 80 | Plant response rating, Ryegrass, Italian [16]: 20 | Ryegrass, Italian plant response rating (0 to 100 scale) [16]: 50 | Plant response rating, Kochia (Kochia (Kochia scoparia) [17]): 30 | Kochia plant response rating (0 to 100 scale) (Kochia (Kochia scoparia) [17]): 50 | Plant response rating, Foxtail, Giant [18]: 90 | Foxtail, Giant plant response rating (0 to 100 scale) [18]: 90

Reference: patent US12077503B2, “Substituted cyclic amides and their use as herbicides” (FMC CORPORATION, priority 2015, dated 2024)
